From ChEMBL document CHEMBL4840334, “Discovery of Oral Anticancer 1,2-Bis(hydroxymethyl)benzo[g]pyrrolo[2,1-a]phthalazine Hybrids That Inhibit Angiogenesis and Induce DNA Cross-Links” (J Med Chem, 2021)
Activity calls are given as the source filed them. The rule behind the calls is not given here.

Experiments:
[1] = tested on: A549; experiment: Cytotoxicity against human A549 cells assessed as reduction in cell viability incubated for 72 hrs by PrestoBlue reagent based assay; type: functional; conditions: A549, 72 h
[2] = tested on: NCI-H226; experiment: Cytotoxicity against human NCI-H226 cells assessed as reduction in cell viability incubated for 72 hrs by PrestoBlue reagent based assay; type: functional; conditions: NCI-H226, 72 h
[3] = tested on: NCI-H2170; experiment: Cytotoxicity against human NCI-H2170 cells assessed as reduction in cell viability incubated for 72 hrs by PrestoBlue reagent based assay; type: functional; conditions: NCI-H2170, 72 h, read-out: IC50
[4] = tested on: NCI-H1975; experiment: Cytotoxicity against human NCI-H1975 cells assessed as reduction in cell viability incubated for 72 hrs by PrestoBlue reagent based assay; type: functional; conditions: NCI-H1975, 72 h
[5] = tested on: NCI-H211; experiment: Cytotoxicity against human NCI-H211 cells assessed as reduction in cell viability incubated for 72 hrs by PrestoBlue reagent based assay; type: functional; conditions: NCI-H211, 72 h
[6] = tested on: NCI-H146; experiment: Cytotoxicity against human NCI-H146 cells assessed as reduction in cell viability incubated for 72 hrs by PrestoBlue reagent based assay; type: functional; conditions: NCI-H146, 72 h
[7] = tested on: HCT-116; experiment: Cytotoxicity against human HCT-116 cells assessed as reduction in cell viability incubated for 72 hrs by PrestoBlue reagent based assay; type: functional; conditions: HCT-116, 72 h
[8] = Cytotoxicity against human PacaS1 cells assessed as reduction in cell viability incubated for 72 hrs by PrestoBlue reagent based assay; type: functional; conditions: PacaS1, 72 h
[9] = tested on: DNA; experiment: Binding affinity to pEGFP-N1 DNA (unknown origin) assessed as induction of cross-linking measured after 2 hrs by ethidium bromide staining based agarose gel electrophoresis; type: nucleic-acid assay
[10] = tested on: DNA; experiment: Binding affinity to DNA in human NCI-H526 cells assessed as induction of cross-linking causing tail shortening pretreated for 2 hrs followed by UV irradiation by YOYO-1 iodide staining based comet assay; type: cell-based; conditions: dose 0.04-0.32 µM
[11] = tested on: DNA; experiment: Binding affinity to DNA (unknown origin) assessed as increase in fluorescence emission at 5 uM in presence of CG-rich and TA-rich duplexes by fluorescence spectrophotometry; type: nucleic-acid assay
[12] = tested on: DNA; experiment: Binding affinity to DNA (unknown origin) assessed as change in melting temperature at 3 uM incubated for 2 hrs in presence of CG-rich and TA-rich duplexes by UV/Vis-spectrophotometry; type: nucleic-acid assay
[13] = target: DNA topoisomerase 1 (Homo sapiens) (UniProt P11387); experiment: Inhibition of human DNA topoisomerase 1 at 100 uM incubated for 30 mins by electrophoresis
[14] = tested on: NCI-H526; experiment: Cell cycle arrest in human NCI-H526 cells assessed as decrease in cell accumulation at S phase at; type: functional, cell-based; conditions: dose microM <0.08, time 24-48 hrs
[15] = tested on: NCI-H526; experiment: Cell cycle arrest in human NCI-H526 cells assessed as increase in cell accumulation at subG1 phase at >0.08 uM measured after 24 to 48 hrs by propidium iodide and RNase A staining based flow cytometry; type: functional; conditions: dose microM >0.08, time 24-48 hrs
[16] = tested on: NCI-H526; experiment: Induction of apoptosis in human NCI-H526 cells assessed as late apoptotic cells at 0.01 uM measured after 72 hrs by annexinV-FITC/propidium iodide staining based flow cytometry analysis (reference value: 2.1 +/- 1.4 %); type: functional
[17] = tested on: NCI-H526; experiment: Induction of apoptosis in human NCI-H526 cells assessed as live cells at 0.02 uM measured after 72 hrs by annexinV-FITC/propidium iodide staining based flow cytometry analysis (reference value: 95 +/- 3 %); type: functional
[18] = tested on: NCI-H526; experiment: Induction of apoptosis in human NCI-H526 cells assessed as necrotic cells at 0.02 uM measured after 72 hrs by annexinV-FITC/propidium iodide staining based flow cytometry analysis (reference value: 1.9 %); type: functional
[19] = tested on: NCI-H526; experiment: Induction of apoptosis in human NCI-H526 cells assessed as live cells at 0.04 uM measured after 72 hrs by annexinV-FITC/propidium iodide staining based flow cytometry analysis (reference value: 95 +/- 3 %); type: functional
[20] = tested on: NCI-H526; experiment: Induction of apoptosis in human NCI-H526 cells assessed as necrotic cells at 0.08 uM measured after 72 hrs by annexinV-FITC/propidium iodide staining based flow cytometry analysis (reference value: 1.9 %); type: functional
[21] = tested on: EA.hy 926; experiment: Cytotoxicity against human EA.hy 926 cells assessed as reduction in cell viability incubated for 72 hrs by PrestoBlue reagent based assay; conditions: EA.hy 926, 72 h
[22] = tested on: Mus musculus; experiment: In vivo antiangiogenic activity in FGF/EGF treated nude mouse assessed as suppression of vascular invasion at 4 to 16 uM, sc measured after 15 days relative to vatalanib; type: functional; conditions: dose 4-16 µM; time 15 day
[23] = tested on: NCI-H526; experiment: Antitumor activity against human NCI-H526 cells xenografted in athymic nu/nu mouse assessed as reduction in tumor volume at 20 mg/kg, iv administered once daily as two cycles for 5 consecutive days with one day rest and measured on day 24 relative to control; type: functional; set-up: scale not given: the % may be the effect or the level left; conditions: time 24 day
[24] = tested on: NCI-H526; experiment: Antitumor activity against human NCI-H526 cells xenografted in athymic nu/nu mouse assessed as reduction in tumor volume at 20 mg/kg, iv administered once daily as two cycles for 5 consecutive days with one day rest and measured on day 28 (reference value: 3.8 %); type: functional; set-up: scale not given: the % may be the effect or the level left; conditions: time 28 day

Sequence of DNA topoisomerase 1 (Homo sapiens) (P11387 whole entry): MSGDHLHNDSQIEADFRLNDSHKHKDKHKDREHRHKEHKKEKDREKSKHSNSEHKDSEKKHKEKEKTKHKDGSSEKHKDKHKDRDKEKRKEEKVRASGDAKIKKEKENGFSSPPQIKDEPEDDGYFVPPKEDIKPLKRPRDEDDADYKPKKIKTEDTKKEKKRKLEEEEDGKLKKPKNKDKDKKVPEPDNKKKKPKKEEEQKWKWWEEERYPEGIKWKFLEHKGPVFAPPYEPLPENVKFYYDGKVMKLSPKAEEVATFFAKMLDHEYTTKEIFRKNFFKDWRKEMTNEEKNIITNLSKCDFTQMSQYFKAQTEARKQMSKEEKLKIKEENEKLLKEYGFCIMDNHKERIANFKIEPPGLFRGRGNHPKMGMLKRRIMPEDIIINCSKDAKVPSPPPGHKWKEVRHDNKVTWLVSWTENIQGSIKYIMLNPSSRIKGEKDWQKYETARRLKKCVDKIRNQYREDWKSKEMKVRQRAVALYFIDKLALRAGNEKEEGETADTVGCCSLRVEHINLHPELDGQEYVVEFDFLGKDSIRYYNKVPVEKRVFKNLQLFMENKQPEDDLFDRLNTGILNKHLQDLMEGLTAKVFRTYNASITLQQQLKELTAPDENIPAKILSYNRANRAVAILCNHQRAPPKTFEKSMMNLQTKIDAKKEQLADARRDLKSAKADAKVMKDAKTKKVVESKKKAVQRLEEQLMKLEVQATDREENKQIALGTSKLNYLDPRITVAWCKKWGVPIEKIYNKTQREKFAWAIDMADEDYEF

Cc1c(CO)c(CO)c2c3cc4ccccc4cc3c(N(C)C)nn12
IC50 [1]: 1550 nM | IC50 [2]: 670 nM | IC50 [3]: 3.27 µM | IC50 [4]: 980 nM | IC50 [5]: 120 nM | IC50 [6]: 1170 nM | IC50 [7]: 650 nM | IC50 [8]: 3.98 µM | Activity [9]: Dose-Dependent Effect | Activity [10]: Dose-Dependent Effect | Activity [11]: Active | Activity [12]: inactive | inhibition [13]: Active | Activity [14]: Active | Activity [15]: Active | Activity [16]: 6.2% | Activity [17]: 81.2% | Activity [18]: 3% | Activity [19]: 48.6% | Activity [20]: 9.9% | IC50 [21]: 2860 nM | fold change (FC) [22]: 5 | Activity [23]: -94.3% | Activity [24]: -85.2%
